Earlier results, collected in patent publication US8871753B2, “Macrocyclic compounds and their use as kinase inhibitors” (Incyte Corporation, priority 2008, dated 2014).

Conditions: patients; cited from earlier work

## C#Cc1cccc(Nc2ncnc3cc(OCCOC)c(OCCOC)cc23)c1 [Tarceva]
  acneiform rash: induced acneiform rash with some patients
